Assay results as given in a melting point compilation (Tetko et al.; mined from patent text by program, amines drawn as free bases though some values may be those of a salt).

Work on `CC(C)Oc1ccc(S(=O)(=O)c2c(O)cccc2F)c([N+](=O)[O-])c1` yielded a melting point of 117 to 119 °C. `FC(F)Oc1ccc(C=Cc2nc(CNc3ccc(CCCCn4ccnn4)cc3)co2)cc1` showed a melting point of 101 to 102 °C. With `CCOc1ccc(Nc2nc(Nc3ccc4c(c3)OCCO4)ncc2F)cc1` the melting point was 164 to 167 °C. Work on `COc1ccc2c(c1OC)CCC1CN(C(=O)CCc3ccc([N+](=O)[O-])cc3)CC21` (stereo not given) yielded a melting point of 231 to 234 °C. In the case of `CC(=O)OC1C(NC(=O)Cc2cccc3c2Cc2ccccc2-3)C(CO)OC1n1cnc2c(Cl)ncnc21` (stereo not given), the melting point is reported as 196 to 197 °C. Compound `Nc1nc(NCc2ccccc2)c2ncn(C3C=CC(CO)C3)c2n1` (stereo not given) has a melting point of 174 to 176 °C. With `O=C(O)CCCCCCCn1nnc(-c2ccccc2)c1-c1ccccc1` the melting point was 103 to 104 °C. Compound `CCOC(=O)C1=C(COCC2(C)CO2)NC(C)=C(C(=O)OC)C1c1cccc(Cl)c1Cl` (stereo not given) has a melting point of 107 to 112 °C. Work on `CC(C)(O)COc1c(-c2ccc(S(C)(=O)=O)cc2)cnn(-c2ccc(Cl)c(Cl)c2)c1=O` yielded a melting point of 108 to 110 °C. `O=c1nc(-c2cccc(S(=O)(=O)CCc3ccccc3)n2)sc2ccccc12` showed a melting point of 162 to 164 °C. In the case of `NNCCCCS(=O)(=O)O`, the melting point is reported as 152 to 154 °C. Work on `Cc1cc(N(C)S(=O)(=O)c2cccs2)c2[nH]c(C3=NCC(CNC(=O)OCc4ccccc4)S3)cc2c1` (stereo not given) yielded a melting point of 160 °C. `CCOC(=O)CC(=O)C=Cc1ccc([N+](=O)[O-])cc1` gave a melting point of 116 °C. `CCOC(=O)c1c(Cl)c2cc(Oc3ccc(C(F)(F)F)cc3)ccc2n1-c1ccc(OC(C)C)cc1` showed a melting point of 136 to 138 °C. In the case of `CCC(=O)C1=C(O)OC(C)(C)OC1=O`, the melting point is reported as 55 to 57 °C. In the case of `ClCCC1(CCCl)c2ccccc2Sc2ccccc21`, the melting point is reported as 61 to 62 °C. Work on `NCCC(O)(c1ccc(Cl)cc1)c1ccc(-c2ccc(Br)cc2)cc1` (stereo not given) yielded a melting point of 154 to 155 °C. With `CC1(C)CC(N(CCCCCCN(CCC(=O)O)C2CC(C)(C)NC(C)(C)C2)CCC(=O)O)CC(C)(C)N1` the melting point was > 250 °C. `Cn1ccnc1C1=Cc2cc(OC(C)(C)C(=O)O)ccc2OC1` showed a melting point of 187 to 190 °C. With `Cc1nn(Cc2cccc(Cl)c2)cc1C(=O)CC(=O)C(=O)O` the melting point was 183 to 184 °C. `N#Cc1ccc2oc(CCc3ccc(C(=O)On4nnc5ccccc54)cc3)cc2c1` gave a melting point of 171 to 172 °C. `CC(C)(C)OC(=O)N1CC2CCCCC(C1)C2C(=O)O` (stereo not given) showed a melting point of 218 to 222 °C. `OCc1ccccc1SCCN1CCN(c2ccccc2)CC1` gave a melting point of 72 to 74 °C. `COc1cc(COc2cc(N)c(Cl)cc2C(=O)CCCCN2CCC(C)CC2)cc(OC)c1` showed a melting point of 136 to 137 °C. `Cc1ccc([N+](=O)[O-])c(OC2CCOC2=O)c1` (stereo not given) gave a melting point of 68 to 70 °C. For `CCS(=O)(=O)c1ccc(C(CC2CCCC2)C(=O)Nc2ccccn2)cc1` (stereo not given), the melting point was 144 to 145 °C. Compound `CCOC(=O)c1cc(O)c2cc3c(O)cc(C(=O)OCC)nc3c(N(CC)CC)c2n1` has a melting point of 267 to 268 °C. For `O=C(O)COc1ccc(SSc2ccc(OCC(=O)O)c(Br)c2)cc1Br`, the melting point was 146 to 150 °C. Work on `NC(=O)C1=C(C(=O)Nc2cc(OC3CCCC3)c(Cl)cc2F)CCCC1` yielded a melting point of 200 to 201 °C. `COC(=O)c1ccc(Cc2cccc3ccc(C(=O)NCC(C)C)cc23)c(OC)c1` showed a melting point of 174 to 175 °C. `N#CC=Cc1ccc(C(=O)Cl)cc1` showed a melting point of 154 °C. With `N#CC=C1OC(=O)c2ccccc21` the melting point was 178 to 180 °C. Compound `COC(=O)c1nc(-c2ccc(Cl)c(OC)c2F)cc(NC(C)=O)c1OCc1ccccc1` has a melting point of 115 to 120 °C. `COC(=O)Cc1ccc2nc(Nc3ccccc3)oc2c1` gave a melting point of 155 to 157 °C. `O=C1NC(Cc2c[nH]c3ccccc23)C(=O)N1CCCN1CCC(c2ccccc2)CC1` (stereo not given) showed a melting point of 179 to 180 °C. For `CCN1c2ccccc2Sc2cc(C=O)ccc21`, the melting point was 94 to 95 °C. With `CCS(=O)(=O)Nc1cc(-c2ncnc(C(C)C)c2Cl)c(F)cc1C#N` the melting point was 160 to 162 °C. For `CC(=O)NC1(C)CCN(Cc2ccccc2)C1` (stereo not given), the melting point was 105 to 106 °C. `N#Cc1nn(-c2c(Cl)cc(C(F)(F)F)cc2Cl)cc1C1CC1` gave a melting point of 124 °C. In the case of `Cc1nc2c(OCc3ccccc3)nccn2c1N`, the melting point is reported as 126 to 133 °C. `Fc1cc(CC2(Cc3ccncc3)c3cccnc3-c3sccc32)ccn1` (stereo not given) showed a melting point of 192 to 193 °C. Work on `O=C(c1ccccc1)c1nsc2nc3ccccc3n12` yielded a melting point of 190 to 191 °C. In the case of `COc1ccc(F)c(NCc2ccccc2)c1`, the melting point is reported as 56 to 58 °C. Compound `O=c1oc(-c2ccc(S(=O)c3ccccc3)cc2)cc(O)c1SCCc1ccccc1` (stereo not given) has a melting point of 171 to 173 °C. `CC(C)[C@H](NC(=O)N(C)Cc1cccnc1)C(=O)N[C@@H](Cc1ccccc1)[C@H](O)[C@@H](O)[C@H](Cc1ccccc1)NC(=O)[C@@H](NC(=O)N(C)Cc1cccnc1)C(C)C` gave a melting point of 95 to 97 °C. For `N#CCOc1cccc2c1SCCC2`, the melting point was 66 °C. For `O=C1C=C(c2ccccc2)NCCN1`, the melting point was 204 to 206 °C. `COc1c(F)c(F)cc2c(=O)c(C(=O)O)cn(C3COC3)c12` showed a melting point of 178 to 179 °C. For `COc1ccc(OC)c(CCc2ccc3ncnc(N)c3c2)c1`, the melting point was 160 to 165 °C. For `Cc1c(-c2ccc(O)cc2)n(C(=O)c2ccc(OCCN3CCCCC3)cc2)c2ccc(O)cc12`, the melting point was 127 to 130 °C. For `CCOC(=O)C(C=O)c1csc(NC=O)n1` (stereo not given), the melting point was 179 to 180 °C. `CCCCCCCCCCS(=O)(=O)NC(=O)c1cnc(C(=O)NCC(=O)OCC)c(OC)c1` showed a melting point of 70 °C. Work on `COc1cc(-c2nc3sccn3c2-c2ccnc(N[C@@H]3CCCN(S(=O)(=O)c4ccc(Cl)cc4)C3)n2)ccc1F` yielded a melting point of 142 to 143 °C. Compound `CCCN(CCC)C(=O)CNc1nc(-c2ccccc2)nc(C(C)C)c1C` has a melting point of 98 to 99 °C. Work on `CCc1noc(-c2cn(-c3ccc4c(c3)OCO4)cn2)n1` yielded a melting point of 173 to 174 °C. Work on `Cc1cc(-c2cccc(-c3ccc(CCCNC4CCc5ccccc5C4)cc3)n2)c(C)[nH]1` (stereo not given) yielded a melting point of 120 to 130 °C. `O=C1Nc2cccc(I)c2C(=O)N2CCC[C@@H]12` showed a melting point of 212 to 215 °C. `COc1ncncc1[N+](=O)[O-]` showed a melting point of 193 to 195 °C. With `COc1c(F)cc2c(c1-c1ccc(C[C@H](NC(=O)c3c(Cl)cccc3Cl)C(=O)O)cc1)OCO2` the melting point was 198 to 199 °C. `CCOCCOC(=O)C(=O)Nc1nc(-c2ccc(C(C)(C)C)cc2)cs1` showed a melting point of 158 to 160 °C. `CCc1cccc(C)c1CNc1cc(C(N)=O)cc2c1nc(C)n2C` gave a melting point of 240 to 241 °C. Work on `Cc1ccc(S(=O)(=O)N2CCC(c3ccc(C=O)cc3)CC2)cc1` yielded a melting point of 134 to 137 °C. `O=S(=O)(NCCCN1CCOCC1)C(F)(F)F` gave a melting point of 95 to 97 °C. For `Cc1nn(-c2c(Cl)cc(C(F)(F)F)cc2Cl)nc1CBr`, the melting point was 98 to 100 °C. In the case of `COc1ccc(-c2ccc3nccn3c2)cc1-c1ccc2nonc2c1`, the melting point is reported as 190 to 196 °C. For `O=C(c1cccc(Cl)c1)c1sc2cc(O)ccc2c1-c1ccccc1`, the melting point was 215 °C. `COc1ccccc1[C@@]1(O)[C@H](O)CC(c2ccccc2)(c2ccccc2)[C@@H]2CN(C(=O)Cc3c[nH]c4ccc(F)cc34)C[C@@H]21` (racemic) showed a melting point of 248 °C. `COc1ccccc1C1(NCCC(=O)OC(C)(C)C)C(=O)Nc2ccc(Cl)cc21` (stereo not given) gave a melting point of 170 °C. In the case of `CS(=O)(=O)N1CCN([C@](O)(CNC(=O)c2ccc(OCC#CCO)cc2)C(N)=O)CC1`, the melting point is reported as 162 °C. In the case of `Cc1nc2cccc(Cn3ccc4cc(Cl)ccc43)c2c(=O)[nH]1`, the melting point is reported as 251 to 252 °C. In the case of `CN1CC(=O)Nc2ccc(Cl)c(F)c2C1=O`, the melting point is reported as > 250 °C. `CC(=O)c1cc2ccccc2cc1C(=O)O` showed a melting point of 145 °C. In the case of `C[C@H](CO)[C@H]1CC[C@H]2[C@@H]3C=CC4=CC(=O)C=C[C@]4(C)[C@H]3CC[C@]12C`, the melting point is reported as 156 to 157 °C. In the case of `C=C(C)C(=O)NCC(=O)O`, the melting point is reported as 104 °C. Compound `O=C(O)c1ccc(C(=O)N2Cc3ccccc3Cc3ccccc32)cc1` has a melting point of 220 to 225 °C. For `Cn1cc(-c2cc3cccnc3[nH]2)c2cc(C(=O)O)ccc21`, the melting point was > 300 °C. For `COc1cc(OC)cc(C(=O)N2CCc3cc(O)ccc3C2=O)c1`, the melting point was 178 to 179 °C. With `CCOCc1nc2c(N)nc(C)c(C)c2n1N(C)C` the melting point was 170 to 171 °C. For `O=C(Nc1cccnn1)N1CCN(c2cc(-c3ccc(F)cc3F)ncn2)CC1`, the melting point was 249 to 250 °C. With `COC(=O)c1cn(CCO)nc1[N+](=O)[O-]` the melting point was 93 to 95 °C. Work on `CCN(CC)C(=O)Cc1c(-c2ccc(Br)cc2)nc2c(C)cc(C)nn12` yielded a melting point of 171 to 175 °C. For `CCN(C(=O)c1ccccc1C(=O)c1ccc(Cl)cc1)[C@@H]1CCCC[C@@H]1NS(=O)(=O)c1ccc(C)cc1` (relative stereo), the melting point was 178 to 180 °C. Compound `OCc1ccc(OCc2cccc(Cl)c2)cn1` has a melting point of 78 to 80 °C. For `Cc1cccc(-c2ccc(=O)[nH]n2)c1`, the melting point was 202 to 205 °C. For `CC(C)Oc1ccc(-n2c(-c3ccc(C(=O)O)cc3)c(C(=O)O)c3cc(Oc4ccc(C(F)(F)F)cc4)ccc32)cc1`, the melting point was 268 to 270 °C. In the case of `CCOc1nnc2c3ccc(Cl)cc3c(-c3ccccc3)nn12`, the melting point is reported as 226 to 228 °C. Compound `O=C(O)c1ccc(Nc2noc(C(F)(F)F)n2)cc1` has a melting point of 244 to 246 °C. For `COc1ccc(-c2nc(COc3cccc(N)c3)c(C)o2)cc1`, the melting point was 132 to 134 °C. Compound `CC(C)(C)c1cc(C=Cc2n[nH]c(=O)[nH]2)cc(C(C)(C)C)c1O` has a melting point of 280 to 284 °C. With `CCCC(=O)NCC1(C)Cc2c(C)c(N3CCN(c4ccc(OC)cc4)CC3)c(C)c(C)c2O1` (stereo not given) the melting point was 140 to 142 °C. Work on `CC1=CC(NC(=O)OC(C)(C)C)C(C(=O)O)CC1` (stereo not given) yielded a melting point of 132 to 136 °C. For `Cc1oc2ccccc2c(=O)c1O`, the melting point was 179 to 180 °C. Compound `O=C(OCC1CCC(COC(=O)c2ccccc2)CC1)c1ccccc1` (stereo not given) has a melting point of 111 to 113 °C. Work on `Clc1nc(Cl)c2ncn(C3CCCCC3)c2n1` yielded a melting point of 116 to 121 °C. With `C#CCc1c(Cl)nc(N)nc1Cl` the melting point was 211 to 212 °C. With `COc1ccc(C(=O)Nc2ccccc2C(=O)c2ccccn2)cc1` the melting point was 132 to 133 °C. `Nc1ccc(-c2noc(-c3cnn4c(C(F)(F)F)cc(-c5ccc(C(F)(F)F)c(F)c5)nc34)n2)cn1` gave a melting point of 233 °C. In the case of `O=c1c2c(Br)cc(Br)cc2n(Cc2ccccc2)c(=O)n1Cc1ccccc1Cl`, the melting point is reported as 202 to 205 °C. `CCN(CC)C(=O)/C=C(\C)c1ccc(OC(C)c2ccccc2)c(OC(C)(C)C(=O)O)c1` (stereo not given) gave a melting point of 117 to 119 °C. In the case of `Cc1cccc([N+](=O)[O-])c1CO`, the melting point is reported as 67 to 68 °C.
